Laboratory results published in BindingDB's records for doi:10.7270/Q2TX3CTT (Broad Institute, 2010).

Target: Glycogen synthase kinase-3 beta (Homo sapiens, UniProt P49841)
Assay: concentration-response blocking of human GSK3B – biochemical, luminescence, cell-free homogeneous, retest, dose response (AID 434954)

Sequence of Glycogen synthase kinase-3 beta (P49841 whole entry): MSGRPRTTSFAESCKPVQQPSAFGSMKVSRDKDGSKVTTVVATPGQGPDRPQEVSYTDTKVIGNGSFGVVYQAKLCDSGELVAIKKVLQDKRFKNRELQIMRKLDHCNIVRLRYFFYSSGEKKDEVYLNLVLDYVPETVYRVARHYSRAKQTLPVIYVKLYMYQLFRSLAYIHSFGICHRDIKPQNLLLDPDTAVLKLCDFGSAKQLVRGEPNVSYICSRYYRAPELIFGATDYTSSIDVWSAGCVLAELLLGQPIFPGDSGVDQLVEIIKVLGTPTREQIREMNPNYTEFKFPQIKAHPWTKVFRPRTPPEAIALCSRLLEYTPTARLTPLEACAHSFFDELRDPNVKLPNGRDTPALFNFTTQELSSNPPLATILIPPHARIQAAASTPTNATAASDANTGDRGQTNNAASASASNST

SMILES	EC50 [µM]
CCCN(C(=O)CCNC(=O)Cn1cnc2ccccc2c1=O)c1cccc(Cl)c1 [N-(3-chlorophenyl)-3-[[2-(4-oxoquinazolin-3-yl)acetyl]amino]-N-propylpropanamide]	> 300
Nc1nonc1-n1nnc(C(=O)NN=Cc2ccc(Cl)cc2Cl)c1CN1CCCCC1 [MLS000950038]	> 300
O=C(Nc1cccc(Cl)c1)c1ccc(NCCCN2CCOCC2)c([N+](=O)[O-])c1 [SMR000194818]	> 300
Cc1ccc2c(c1)C1CN(C)CCC1N2C(=S)Nc1ccc(Cl)cc1Cl (stereo not drawn) [SMR000385491]	> 300
COc1ccc(-c2nn(-c3ccccc3)cc2C(=O)O)cc1OC [SMR000124387]	> 300
O=C(Nc1ccccn1)Nc1ccccc1[N+](=O)[O-] [N-(2-nitrophenyl)-N'-pyridin-2-ylurea]	> 300
O=C(Nc1cccc(-c2cnc3ccccc3n2)c1)c1ccccc1 [N-[3-(2-quinoxalinyl)phenyl]benzamide]	> 300
Cc1nn(CC(=O)NCCCN2CCCCC2)c(=O)c2cc(-c3ccccc3)nn12 [SMR000631197]	> 300
Nc1nc(NCC(=O)O)nc(NC2CCCCC2)c1[N+](=O)[O-] [2-[[4-azanyl-6-(cyclohexylamino)-5-nitro-pyrimidin-2-yl]amino]ethanoic acid]	> 300
Cc1ccc(C(C(=O)NC2CCCCC2)N(CC2CCCO2)C(=O)CNC(=O)c2cccs2)cc1 (stereo not drawn) [N-[2-[[2-(cyclohexylamino)-1-(4-methylphenyl)-2-oxoethyl]-(oxolan-2-ylmethyl)amino]-2-oxoethyl]thiophene-2-carboxamide]	> 300
CCNc1nc(N)nc(-c2cc(Cl)ccc2OC)n1 [MLS000538218]	> 300
O=C(CCS(=O)(=O)c1ccccc1)Nc1ncc([N+](=O)[O-])s1 [SMR000605858]	> 300
Cc1ccc2nc(-c3ccc4c(c3)NC(=O)CO4)cn2c1 [6-(6-methyl-2-imidazo[1,2-a]pyridinyl)-4H-1,4-benzoxazin-3-one]	> 300
O=C(N1CCN(c2ccccc2F)CC1)C12CC3CC(CC(C3)C1)C2 [SMR000071700]	> 300
Cc1ncc(C=C2C(=O)Nc3ccccc32)[nH]1 [3-[(Z)-(2-methyl-1H-imidazol-4-yl)methylidene]-1H-indol-2-one]	> 300
O=C(c1ccncc1)N1CCN(C(=O)c2ccco2)CC1 [MLS000066790]	> 300
CC[n+]1c(/C=C/N(C)c2ccccc2)sc2ccc(Cl)cc21 [N-[(E)-2-(5-chloro-3-ethyl-1,3-benzothiazol-3-ium-2-yl)ethenyl]-N-methylaniline;perchlorate]	49.8
N#Cc1ccccc1CSc1nnc(Cc2ccccc2)o1 [SMR000297282]	> 300
Cn1c(SCC(=O)NC2CCCCC2)nnc1-c1ccccn1	> 300
CC(C)=CCc1c(O)cc(O)c2c1O[C@H](c1ccc(O)cc1)CC2=O	> 300
COc1ccc(NC(=O)c2sc(S)nc2N)cc1 [4-Amino-2-thioxo-2,3-dihydro-thiazole-5-carboxylic acid (4-methoxy-phenyl)-amide]	> 300
CCOC(=O)CC(=O)CSc1ccc2nnc(-c3cccc(F)c3)n2n1 [ethyl 4-[[3-(3-fluorophenyl)-[1,2,4]triazolo[4,3-b]pyridazin-6-yl]sulfanyl]-3-oxobutanoate]	> 300

SMILES	EC50 [µM]
CCOC(=O)CCCSc1nnc(CCCCCN2C(=O)c3cccc4cccc(c34)C2=O)o1 [SMR000235858]	> 300
COc1cc2c(cc1OC)C(C)N(C(=O)c1ccc(Br)o1)CC2 (stereo not drawn) [SMR000269781]	> 300
CCn1nc(NC(=O)Cc2ccc(OC)cc2)c2cc3cc(C)ccc3nc21	> 300
O=C(Nc1cc(-c2ccccc2)n[nH]1)c1ccccc1 [SMR000459251]	> 300
COc1cc(/C=N/NC(=O)c2cccc(Cl)c2)ccc1Oc1ccc([N+](=O)[O-])cn1 [MLS000779574]	> 300
CCN(CC)Cc1c(C(=O)NN=Cc2c(Cl)cccc2Cl)nnn1-c1nonc1N [SMR000620609]	> 300
CNc1nc2c(N)ncnc2n1[C@H]1O[C@@H](CO)[C@H](O)[C@@H]1O [(2S,3S,4R,5S)-2-[6-amino-8-(methylamino)purin-9-yl]-5-(hydroxymethyl)oxolane-3,4-diol]	> 300
COc1ccc(-c2nc(-c3ccccc3)nc(Cl)c2C#N)cc1 [4-chloranyl-6-(4-methoxyphenyl)-2-phenyl-pyrimidine-5-carbonitrile]	> 300
Cc1cccc(Nc2nc(N)c([N+](=O)[O-])c(N3CCOCC3)n2)c1 [6-Morpholin-4-yl-5-nitro-N*2*-m-tolyl-pyrimidine-2,4-diamine]	> 300
CC1(C)CC(=O)C=C(Nc2ccc(Br)cn2)C1 [3-[(5-bromopyridin-2-yl)amino]-5,5-dimethylcyclohex-2-en-1-one]	> 300
O=Cc1cn(CCC(=O)O)nc1-c1cccc2ccccc12 [3-(4-formyl-3-naphthalen-1-ylpyrazol-1-yl)propanoic acid]	> 300
Cc1cc(-c2onc3ccc(Cl)cc23)ccc1O [(4E)-4-(5-chloro-1H-2,1-benzoxazol-3-ylidene)-2-methylcyclohexa-2,5-dien-1-one]	> 300
Cc1cc(NC(=O)CSc2nnc(C3CC3)n2Cc2ccccc2)no1 [MLS000566701]	> 300
CCNc1nc(N)c(C(=O)C23CC4CC(CC(C4)C2)C3)s1 [Adamantan-1-yl-(4-amino-2-ethylamino-thiazol-5-yl)-methanone]	> 300
CC1(C)CC(=O)C=C(Nc2cccc(O)c2)C1 [MLS000108953]	> 300
O=C(c1ccc(Cl)nc1)N1CCN(C/C=C/c2ccccc2)CC1 [SMR000352615]	> 300
Cn1c(SCc2nc(-c3ccccc3)no2)nnc1-c1ccco1	> 300
Cc1ccc(-c2nnc(SCc3ccccc3F)o2)cc1 [2-[(2-fluorobenzyl)thio]-5-(4-methylphenyl)-1,3,4-oxadiazole]	> 300
CC(C)=CCc1c(O)ccc(C2COc3c(CC=C(C)C)c(O)cc(O)c3C2=O)c1O (stereo not drawn) [3',8-diprenyldalbergioidin]	> 300
N#Cc1c(N)n(-c2cccc(O)c2)c2nc3ccccc3nc12 [SMR000413688]	> 300
O=C(O)Cc1sc(N[N-][CH+]c2ccc(-c3ccc(Cl)c([N+](=O)[O-])c3)o2)nc1O [MLS000689975]	> 300
Fc1ccc(Nc2nc(-c3ccncc3)nc3ccccc23)cc1 [(4-Fluoro-phenyl)-(2-pyridin-4-yl-quinazolin-4-yl)-amine]	> 300

Other lines, results leading:

EC50 [µM]	SMILES
> 300	O=C(CSc1ccc2nnc(-c3ccc(F)cc3)n2n1)N1CCOCC1 [2-[[3-(4-fluorophenyl)-[1,2,4]triazolo[4,3-b]pyridazin-6-yl]sulfanyl]-1-morpholin-4-yl-ethanone]
> 300	C/C=C/c1ccc(OCC(=O)O)c(OC)c1
13.4	COc1ccc(CNC(=O)CN(Cc2cccs2)C(=O)CCC(=O)Nc2ccccn2)cc1 [MLS000687650]
> 300	COc1ccc(CN=Nc2ccc([N+](=O)[O-])cc2)cc1O [MLS001198430]
8.87	Nc1nonc1-n1nnc(C(=O)NN=Cc2ccc(OCc3ccccc3)cc2)c1CN1CCCCC1 [MLS001075115]
> 300	COc1cc(C(=O)NC(=S)N(CCc2ccccc2)CCc2ccccc2)cc(OC)c1OC [N-[bis(2-phenylethyl)carbamothioyl]-3,4,5-trimethoxybenzamide]
> 300	CCCCCCSc1ccc([C@H]2N[C@@](CC(C)C)(C(=O)OC)[C@H]3C(=O)N(C)C(=O)[C@@H]23)cc1 [SMR000814394]
0.421	Cc1[nH]nc2c1C(c1cccc(O)c1)C1C(=O)CC(C)(C)CC1=N2 (stereo not drawn) [MLS000081979]
> 300	Cc1ccc2c(c1)cc1c(O)nncn12 [MLS000551564]
> 300	CSc1nnc2ccc(-c3cccs3)nn12 [SMR000324231]
7.19	Cc1ccnc(NC(=O)C(C)n2cc([N+](=O)[O-])cn2)c1 (stereo not drawn)
> 300	Cc1ccc(-c2nc(Nc3cccc(O)c3)c3ccccc3n2)cc1 [MLS001196546]
24.4	CC(=O)N1CCc2c(sc(NC(=O)Cc3ccccc3)c2C(N)=O)C1 [MLS000879211]
45.9	COc1cc(C(=O)N2CCN(c3ccccn3)CC2)cc(OC)c1OC [SMR000518691]
14.5	Cc1ccc(CSc2nnc(-c3ccncc3)o2)c(C)c1 [SMR000280552]
1.67	O=c1cc(-c2ccccc2Cl)oc2cc(O)cc(O)c12 [2-(2-chlorophenyl)-5,7-dihydroxychromen-4-one]
21.8	CN(C)Cc1c(C(=O)NN=CCCc2ccccc2)nnn1-c1nonc1N
14.7	O=C(COc1ccccc1[N+](=O)[O-])NN=Cc1ccc(OC(=O)c2ccco2)cc1 [4-((E)-{2-[2-(2-nitrophenoxy)acetyl]hydrazono}methyl)phenyl 2-furoate]
0.622	Nc1nc(Nc2ccccc2F)sc1C(=O)c1ccccc1 [[4-amino-2-(2-fluoroanilino)-1,3-thiazol-5-yl]-phenylmethanone]
4.85	Clc1ccccc1CSc1nnc(-c2ccncc2)o1 [2-{[(2-chlorophenyl)methyl]sulfanyl}-5-(pyridin-4-yl)-1,3,4-oxadiazole]
23	O=C1Nc2ccc([N+](=O)[O-])cc2C1=NNC1CS(=O)(=O)CC1O (stereo not drawn) [SMR000368316]
1.57	Nc1nonc1-n1nnc(C(=O)NN=Cc2ccccc2Br)c1CN1CCCC1 [SMR000620637]
20.7	Cn1c(SCC(=O)Nc2ccc(Br)cn2)nnc1C1CC1 [N-(5-bromopyridin-2-yl)-2-[(5-cyclopropyl-4-methyl-1,2,4-triazol-3-yl)sulfanyl]acetamide]
4.96	O=C(Nc1ccncc1)Nc1ccccn1 [1-pyridin-2-yl-3-pyridin-4-yl-urea]
8.24	O=C(O)Cn1cc(CN=Nc2ccc([N+](=O)[O-])cn2)c2ccccc21 [SMR000540193]
56.6	CC(=O)c1coc2ccc(OCC(=O)O)cc12 [2-[(3-acetyl-5-benzofuranyl)oxy]acetic acid]
19.2	N#Cc1c(N)nc(C(C#N)C#N)c(C#N)c1-c1ccccc1
29.5	CCC(Sc1ccc2nnc(-c3ccc(F)cc3)n2n1)C(=O)O (stereo not drawn) [2-[[3-(4-fluorophenyl)-[1,2,4]triazolo[4,3-b]pyridazin-6-yl]thio]butanoic acid]
33.6	c1ccc(-c2nc(NCCCn3ccnc3)c3ccccc3n2)cc1 [MLS001007021]
